According to ChEMBL document CHEMBL1156102, “Identification of iminooxothiazolidines as secreted frizzled related protein-1 inhibitors” (Bioorg Med Chem Lett, 2009):
Activity calls are given as the source filed them. No cut-off for these calls is given here.

How the values were obtained:
[1] = target: T1, Secreted frizzled-related protein 1 (Homo sapiens) (UniProt Q8N474); assay: Inhibition of human SFRP1 transfected in human U20S cells at 15 uM by TCF-luciferase reporter gene assay relative to control; assay type: cell-based; settings: U2OS
T1 sequence (whole entry): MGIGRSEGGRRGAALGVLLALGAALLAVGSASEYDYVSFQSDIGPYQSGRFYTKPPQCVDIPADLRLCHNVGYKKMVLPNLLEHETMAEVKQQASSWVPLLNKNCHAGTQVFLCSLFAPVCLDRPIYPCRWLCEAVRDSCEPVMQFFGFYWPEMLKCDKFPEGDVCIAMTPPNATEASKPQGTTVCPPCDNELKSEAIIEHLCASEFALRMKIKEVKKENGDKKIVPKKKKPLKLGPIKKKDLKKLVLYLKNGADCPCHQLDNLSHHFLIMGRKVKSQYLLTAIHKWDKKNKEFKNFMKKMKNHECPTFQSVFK

[2] = target: T1, Secreted frizzled-related protein 1 (Homo sapiens); assay: Inhibition of human SFRP1 transfected in human U20S cells at 30 uM by TCF-luciferase reporter gene assay relative to control; assay type: cell-based; settings: U2OS
[3] = target: T2, Secreted frizzled-related protein 1 (Homo sapiens, UniProt Q8N474); assay: Inhibition of human SFRP1 transfected in human U20S cells by TCF-luciferase reporter gene assay; assay type: cell-based, U2OS
T2 sequence (Q8N474 whole entry): T1 sequence (whole entry)

[4] = target: Proto-oncogene Wnt-3 (Homo sapiens) (UniProt P56703); assay: Binding affinity to Wnt3
Proto-oncogene Wnt-3 (Homo sapiens), sequence (P56703 whole entry): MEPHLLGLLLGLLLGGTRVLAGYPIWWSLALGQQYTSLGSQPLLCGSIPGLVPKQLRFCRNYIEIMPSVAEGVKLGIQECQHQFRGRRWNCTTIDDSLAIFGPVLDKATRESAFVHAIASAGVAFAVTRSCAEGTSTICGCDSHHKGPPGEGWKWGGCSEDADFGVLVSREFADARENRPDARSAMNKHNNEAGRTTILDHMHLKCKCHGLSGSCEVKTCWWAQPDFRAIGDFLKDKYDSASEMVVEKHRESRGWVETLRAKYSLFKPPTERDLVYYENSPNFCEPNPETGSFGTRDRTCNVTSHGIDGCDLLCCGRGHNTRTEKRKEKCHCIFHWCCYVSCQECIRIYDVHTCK

[5] = target: T2, Secreted frizzled-related protein 1; assay: Binding affinity to human SFRP1 by fluorescence spectroscopy
[6] = target: Secreted frizzled-related protein 1 (Homo sapiens) (UniProt Q8N474); assay: Inhibition of human SFRP1
[7] = organism: Mus musculus; assay: Ex vivo osteogenic activity in mouse calvaria assessed in increase in total bone area at 15 uM; assay type: functional
[8] = organism: Mus musculus; assay: Ex vivo osteogenic activity in mouse calvaria assessed in increase in osteoblasts number at 15 uM; assay type: functional

fold change (FC) [1]	Compound	further results
1.1	N=C1NC(=O)C(CC(=O)Nc2sc3c(c2C(N)=O)CCCC3)S1 (stereo unspecified)	–
1.2	N#Cc1c(NC(=O)CC2SC(=N)NC2=O)sc2c1CCCC2 (stereo unspecified)	–
1.9	CCOC(=O)c1c(NC(=O)CC2SC(=N)NC2=O)sc2c1CCCCC2 (stereo unspecified)	–
1.5	CCOC(=O)c1c(NC(=O)CC2SC(=N)NC2=O)sc2c1CCC2 (stereo unspecified)	–
1.9	COC(=O)c1c(NC(=O)CC2SC(=N)NC2=O)sc(C)c1C (stereo unspecified)	EC50 [3]: 7.2 µM; Activity [4]: Active; Kd [5]: 0.72 µM; Activity [6]: Active
1.6	CCOC(=O)c1c(NC(=O)CC2SC(=N)NC2=O)sc2c1CCCC2 (stereo unspecified)	–
1.2	COC(=O)c1ccsc1NC(=O)CC1SC(=N)NC1=O (stereo unspecified)	–
2.3	CCOC(=O)c1c(NC(=O)CC2SC(=N)NC2=O)sc(C)c1C (stereo unspecified)	Activity [7]: Active; Activity [8]: Active
2	CCOC(=O)c1c(C)csc1NC(=O)CC1SC(=N)NC1=O (stereo unspecified)	–
1.7	CCOC(=O)c1cc(CC)sc1NC(=O)CC1SC(=N)NC1=O (stereo unspecified)	–
1	CCOC(=O)c1c(NC(=O)CC2SC(=O)NC2=O)sc2c1CCCC2 (stereo unspecified)	–
2.6	CCOC(=O)c1c(NC(=O)CC2SC(=N)NC2=O)sc(Br)c1C (stereo unspecified)	–

Continued, molecule first:

Compound	fold change (FC) [1]	further results
CCOC(=O)c1c(NC(=O)CC2S/C(=N/C)NC2=O)sc(C)c1C (stereo unspecified)	1.2	–
N=C1NC(=O)C(CC(=O)Nc2cccc(Cl)c2)S1 (stereo unspecified)	–	fold change (FC) [2]: 1.7
COC(=O)c1cc(-c2ccccc2)sc1NC(=O)CC1SC(=N)NC1=O (stereo unspecified)	0.9	–
CCOC(=O)c1c(NC(=O)CC2SC(=N)NC2=O)sc(-c2ccccc2)c1C (stereo unspecified)	0.8	–
CCOC(=O)c1cccc(NC(=O)CC2SC(=N)NC2=O)c1 (stereo unspecified)	–	fold change (FC) [2]: 1.5
CCOC(=O)c1ccccc1NC(=O)CC1SC(=N)NC1=O (stereo unspecified)	1.1	–
N=C1NC(=O)C(CC(=O)Nc2cccc(Cl)c2Cl)S1 (stereo unspecified)	–	fold change (FC) [2]: 1
CCOC(=O)c1c(NC(=O)CC2S/C(=N/C)N(C)C2=O)sc(C)c1C (stereo unspecified)	1.2	–
CCOC(=O)c1c(NC(=O)CC2SC(=N)NC2=O)sc(C)c1-c1ccccc1 (stereo unspecified)	1.8	–
N=C1NC(=O)C(CC(=O)NCc2cccc(Cl)c2)S1 (stereo unspecified)	–	fold change (FC) [2]: 1
CCOC(=O)c1c(NC(=O)CC2SC(=N)NC2=O)sc(Br)c1CNc1ccccc1 (stereo unspecified)	2.5	–
N=C1NC(=O)C(CC(=O)Nc2ccccc2)S1 (stereo unspecified)	–	fold change (FC) [2]: 1.1
CC/N=C1\NC(=O)C(CC(=O)Nc2sc(C)c(C)c2C(=O)OCC)S1 (stereo unspecified)	1.2	–
